#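 GI50: concentration for 50% inhibition of growth. TGI: total growth inhibition.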
# How the values were obtained:
# Test in all cases: NCI-60 cell line screen, 384-well format
# 786-0 renal = system: 786-0 renal
# BT-549 breast = system: BT-549 breast
# CAKI-1 renal = system: CAKI-1 renal
# CCRF-CEM leukemia = system: CCRF-CEM leukemia
# COLO 205 colon = system: COLO 205 colon
# DU-145 prostate = system: DU-145 prostate
# EKVX NSCLC = system: EKVX NSCLC
# HCC-2998 colon = system: HCC-2998 colon
# HCT-116 colon = system: HCT-116 colon
# HCT-15 colon = system: HCT-15 colon
# HL-60(TB) leukemia = system: HL-60(TB) leukemia
# HOP-62 NSCLC = system: HOP-62 NSCLC
# HS 578T breast = system: HS 578T breast
# HT29 colon = system: HT29 colon
# IGROV1 ovarian = system: IGROV1 ovarian
# K-562 leukemia = system: K-562 leukemia
# KM12 colon = system: KM12 colon
# LOX IMVI melanoma = system: LOX IMVI melanoma
# M14 melanoma = system: M14 melanoma
# MDA-MB-231 breast = system: MDA-MB-231 breast
# MDA-MB-435 melanoma = system: MDA-MB-435 melanoma
# MDA-MB-468 breast = system: MDA-MB-468 breast
# NCI-H226 lung = system: NCI-H226 lung
# NCI-H23 lung = system: NCI-H23 lung
# NCI-H460 NSCLC = system: NCI-H460 NSCLC
# NCI/ADR-RES ovarian = system: NCI/ADR-RES ovarian
# OVCAR-3 ovarian = system: OVCAR-3 ovarian
# OVCAR-5 ovarian = system: OVCAR-5 ovarian
# OVCAR-8 ovarian = system: OVCAR-8 ovarian
# PC-3 prostate = system: PC-3 prostate
# RPMI-8226 leukemia = system: RPMI-8226 leukemia
# RXF 393 renal = system: RXF 393 renal
# SF-295 CNS = system: SF-295 CNS
# SF-539 CNS = system: SF-539 CNS
# SK-MEL-2 melanoma = system: SK-MEL-2 melanoma
# SK-MEL-5 melanoma = system: SK-MEL-5 melanoma
# SK-OV-3 ovarian = system: SK-OV-3 ovarian
# SNB-19 CNS = system: SNB-19 CNS
# SNB-75 CNS = system: SNB-75 CNS
# SR leukemia = system: SR leukemia
# SW-620 colon = system: SW-620 colon
# T-47D breast = system: T-47D breast
# TK-10 renal = system: TK-10 renal
# U251 glioblastoma = system: U251 glioblastoma
# UACC-257 melanoma = system: UACC-257 melanoma
# UACC-62 melanoma = system: UACC-62 melanoma
# UO-31 renal = system: UO-31 renal
smiles,measurement,setting,value
COc1cc(C)[nH]c(=O)c1CNC(=O)c1c(C)n([C@H](C)C2CCN(CC(F)(F)F)CC2)c2ccccc12,GI50,786-0 renal,50.6 µM
same,TGI,786-0 renal,> 100 µM
same,GI50,BT-549 breast,27.4 µM
same,TGI,BT-549 breast,> 72.6 µM
same,GI50,CAKI-1 renal,63.5 µM
same,TGI,CAKI-1 renal,> 100 µM
same,GI50,CCRF-CEM leukemia,21.6 µM
same,TGI,CCRF-CEM leukemia,43.9 µM
same,GI50,COLO 205 colon,97.3 µM
same,TGI,COLO 205 colon,> 100 µM
same,GI50,DU-145 prostate,51.1 µM
same,TGI,DU-145 prostate,> 100 µM
same,GI50,EKVX NSCLC,67.7 µM
same,TGI,EKVX NSCLC,> 100 µM
same,GI50,HCC-2998 colon,65.3 µM
same,TGI,HCC-2998 colon,> 100 µM
same,GI50,HCT-116 colon,66.8 µM
same,TGI,HCT-116 colon,> 100 µM
same,GI50,HCT-15 colon,67 µM
same,TGI,HCT-15 colon,> 100 µM
same,GI50,HL-60(TB) leukemia,33.4 µM
same,TGI,HL-60(TB) leukemia,> 61.6 µM
same,GI50,HOP-62 NSCLC,46.7 µM
same,TGI,HOP-62 NSCLC,> 100 µM
same,GI50,HS 578T breast,40.1 µM
same,TGI,HS 578T breast,> 100 µM
same,GI50,HT29 colon,39.7 µM
same,TGI,HT29 colon,> 100 µM
same,GI50,IGROV1 ovarian,44.1 µM
same,TGI,IGROV1 ovarian,> 100 µM
same,GI50,K-562 leukemia,36.3 µM
same,TGI,K-562 leukemia,> 100 µM
same,GI50,KM12 colon,53.8 µM
same,TGI,KM12 colon,> 100 µM
same,GI50,LOX IMVI melanoma,31.7 µM
same,TGI,LOX IMVI melanoma,94.1 µM
same,GI50,M14 melanoma,> 72.8 µM
same,TGI,M14 melanoma,> 100 µM
same,GI50,MDA-MB-231 breast,67.5 µM
same,TGI,MDA-MB-231 breast,> 100 µM
same,GI50,MDA-MB-435 melanoma,58.6 µM
same,TGI,MDA-MB-435 melanoma,> 100 µM
same,GI50,MDA-MB-468 breast,21.4 µM
same,TGI,MDA-MB-468 breast,51.3 µM
same,GI50,NCI-H226 lung,> 51.9 µM
same,TGI,NCI-H226 lung,96.9 µM
same,GI50,NCI-H23 lung,> 100 µM
same,TGI,NCI-H23 lung,> 100 µM
same,GI50,NCI-H460 NSCLC,54.7 µM
same,TGI,NCI-H460 NSCLC,> 100 µM
same,GI50,NCI/ADR-RES ovarian,> 100 µM
same,TGI,NCI/ADR-RES ovarian,> 100 µM
same,GI50,OVCAR-3 ovarian,34.2 µM
same,TGI,OVCAR-3 ovarian,> 96.5 µM
same,GI50,OVCAR-5 ovarian,> 100 µM
same,TGI,OVCAR-5 ovarian,> 100 µM
same,GI50,OVCAR-8 ovarian,> 96 µM
same,TGI,OVCAR-8 ovarian,> 100 µM
same,GI50,PC-3 prostate,55.5 µM
same,TGI,PC-3 prostate,> 100 µM
same,GI50,RPMI-8226 leukemia,2400 nM
same,TGI,RPMI-8226 leukemia,10.3 µM
same,GI50,RXF 393 renal,28.3 µM
same,TGI,RXF 393 renal,79.7 µM
same,GI50,SF-295 CNS,76.6 µM
same,TGI,SF-295 CNS,> 100 µM
same,GI50,SF-539 CNS,> 100 µM
same,TGI,SF-539 CNS,> 100 µM
same,GI50,SK-MEL-2 melanoma,38.6 µM
same,TGI,SK-MEL-2 melanoma,> 100 µM
same,GI50,SK-MEL-5 melanoma,33.5 µM
same,TGI,SK-MEL-5 melanoma,> 65.5 µM
same,GI50,SK-OV-3 ovarian,56.6 µM
same,TGI,SK-OV-3 ovarian,> 100 µM
same,GI50,SNB-19 CNS,> 100 µM
same,TGI,SNB-19 CNS,> 100 µM
same,GI50,SNB-75 CNS,42 µM
same,TGI,SNB-75 CNS,> 100 µM
same,GI50,SR leukemia,21.5 µM
same,TGI,SR leukemia,76.5 µM
same,GI50,SW-620 colon,52 µM
same,TGI,SW-620 colon,> 91.9 µM
same,GI50,T-47D breast,29.7 µM
same,TGI,T-47D breast,> 94.1 µM
same,GI50,TK-10 renal,> 100 µM
same,TGI,TK-10 renal,> 100 µM
same,GI50,U251 glioblastoma,98 µM
same,TGI,U251 glioblastoma,> 100 µM
same,GI50,UACC-257 melanoma,50.3 µM
same,TGI,UACC-257 melanoma,> 100 µM
same,GI50,UACC-62 melanoma,37.9 µM
same,TGI,UACC-62 melanoma,> 100 µM
same,GI50,UO-31 renal,90.4 µM
same,TGI,UO-31 renal,> 100 µM
